Measurements taken from patent US4211866A, “Acyl derivatives of 2-[3-(2-chloroethyl)-3-nitrosoureido]-2-deoxy-D-glucopyranose” (Nippon Shinyaku Co., Ltd., priority 1977, dated 1980).

How the values were obtained:
Acute toxicities in mice = assay type: in vivo; conditions: mice (male, ddy), intraperitoneal single dose, 7 days survival
Excerpt: Acute toxicities in mice (male, ddy).
*Intraperitoneal administration of a single dose, 7 days survival.

[1] = system: mouse lymphatic leukemia P-388; assay: Antileukemic activity against Leukemia P-388 in mice; assay type: in vivo, mouse (SLC-BDF1, male); conditions: intraperitoneal, every 24 hours, 9 doses; for Median survival time: control 10.2 days; for Increase of Life Span: vs control
Experimental: The antitumor activity and acute toxicity of the acyl derivatives of 2-[3-(2-chloroethyl)-3-nitrosoureido]-2-deoxy-D-glucopyranose according to this invention can be conveniently observed in recognized animal models. 1,000,000 cells of mouse lymphatic leukemia P-388 were intraperitoneally transplanted into each mouse (SLC-BDF1, male, 18 g.congruent.1 g, 5 weeks old). After 24 hours and thereafter at intervals of 24 hours, a predetermined amount of an acyl derivative of 2-[3-(2-chloroethyl)-3-nitro-soureido]-2-deoxy-D-glucopyramose was intraperitoneally administered for a total of 9 doses. The mice were reared under observation.

| Molecule | LD50 (Acute toxicities in mice) | Median survival time ([1]; 0.125 mg/Kg/dose) | Increase of Life Span ([1]; 0.125 mg/Kg/dose) | Median survival time ([1]; 0.25 mg/Kg/dose) | Increase of Life Span ([1]; 0.25 mg/Kg/dose) | Median survival time ([1]; 0.5 mg/Kg/dose) | Increase of Life Span ([1]; 0.5 mg/Kg/dose) | Median survival time ([1]; 1.0 mg/Kg/dose) | Increase of Life Span ([1]; 1.0 mg/Kg/dose) | LD50 at 168 h (Acute toxicities in mice; mouse, in vivo, ip) |
| --- | --- | --- | --- | --- | --- | --- | --- | --- | --- | --- |
| 2-[3-(2-chloroethyl-3-nitrosoureidol]-2-deoxy-D-glucopyranose tripalmitate | > 800 mg/kg | – | – | – | – | – | – | – | – | – |
| 2-[3-(2-chloroethyl)-3-nitrosoureido]-2-deoxy-D-glucopyranose dipalmitate | > 800 mg/kg | 16.5 days | 61.8% | 17.8 days | 74.5% | 19.3 days | 89.2% | 21.0 days | 105.9% | – |
| O=NN(CCCl)C(=O)N[C@H]1C(O)O[C@H](CO)[C@@H](O)[C@@H]1O (stereo partly drawn) [Chlorozotocin, 2-[3-(2-Chloroethyl)-3-nitrosoureido]-2-deoxy-D-glucopyranose] | – | 12.3 days | 20.6% | 14.5 days | 42.2% | 16.3 days | 59.8% | 18.8 days | 84.3% | 45 to 47 mg/kg |
| 2-[3-(2-chloroethyl)-3-nitrosoureido]-2-deoxy-D-glucopyranose monopalmitate | 162.5 mg/kg | 14.8 days | 45.1% | 15.5 days | 52.0% | 16.3 days | 59.8% | 17.5 days | 71.6% | – |
